“Also recorded” adds a separate entry of the source. Where two headings read alike, the source gives them in different places.

Consider 2 compounds from US20110129508A1 (priority 2008, published 2011).

The subject of data set [1] is streptozotocin-induced diabetic neuropathy model of neuropathic pain. The note with it: rat, in vivo, ip, 2.5 mg/kg.
The conditions of data set [2]: rat, in vivo.
For data set [3], the system named is rat model of diabetic neuropathic pain. Also on record: species or system rats. The note with it: in vivo.
Data set [4] deals with rat model of prostate bone cancer pain. Kind of data set: animal or person. As to conditions: for ED50: Rattus norvegicus. The data set is classed as in vivo, Male Wistar rats.
For data set [5] the following is noted: male, Wistar (HsdBrlHan WIST), rat, in vivo, ip.

With `CCOC(=O)Nc1ccc(NCc2ccc(F)cc2)nc1N` [flupirtine], in data set [1], the reversal in hyperalgesia entry was “over 20%”. Also, in data set [2], the mean rest times amounted to 943.83 s. For the same compound, in data set [3], the reversal of hyperalgesia turned out to be 8±8%. Also, the ED50 in data set [4] (ip) and in data set [4] (read-out: ED50 Mean) was 3.32 mg/kg in each case.

With `CN1CC[C@]23c4c5ccc(O)c4O[C@H]2[C@@H](O)C=C[C@H]3[C@H]1C5` [morphine], the maximum non-sedating dose in data set [5] is 5 mg/kg. Further, the ED50 in data set [4] (ip) and in data set [4] (read-out: ED50 Mean) was 0.735 mg/kg in each case. Moreover, in data set [4] (rat, in vivo, ip), the antinociception entry is listed as “dose related antinociception; also recorded: dose related antinociceptive effects”. Further, in data set [4] (rat, in vivo, ip, 5 mg/kg), the reversal of hyperalgesia amounted to 73%.
